Assay results taken from patent publication US4160829A, “Antibacterial 1,2,4-oxadiazolylacetamido cephalosporins” (Gist-Brocades N.V., priority 1972, dated 1979).

What was measured:
Dipl.pneum. L 54 = assay: agar serial dilution test; format: cell-based, Diplococcus pneumoniae; conditions: Streptococcus pneumoniae; agar serial dilution, 24 hours, 37° C.; read-out: minimal inhibitory concentration (MIC)
Salm.dubl. P 43 = assay: agar serial dilution test; format: cell-based, Salmonella dublin; conditions: Salmonella enterica; agar serial dilution, 24 hours, 37° C.; read-out: minimal inhibitory concentration (MIC)
Prot.mirab. A 1200 [1] = assay: agar serial dilution test; format: cell-based, Proteus mirabilis; conditions: Proteus mirabilis, 24 h, agar serial dilution, 24 hours, 37° C.; read-out: minimal inhibitory concentration (MIC)
Prot.morg. 2241 = assay: agar serial dilution test; format: cell-based; conditions: 24 h, agar serial dilution, 24 hours, 37° C.; read-out: minimal inhibitory concentration (MIC)
Sarc. lutea ATCC 9341 = assay: agar serial dilution test; format: cell-based; conditions: Micrococcus luteus, ATCC9341, 24 hours, 37° C., read-out: minimal inhibitory concentration (MIC)
Actinob.equ. T 3 = assay: agar serial dilution test; format: cell-based; conditions: 24 hours, 37° C., read-out: minimal inhibitory concentration (MIC)
Prot.mirab. A 1200 [2] = assay: micro serial dilution test; format: cell-based; conditions: Proteus mirabilis; micro serial dilution (in brackets), about 18 hours, 30° C. or 37° C.; read-out: minimal inhibitory concentration (MIC)
Haem.Suis A 2096 = assay: micro serial dilution test; format: cell-based; conditions: micro serial dilution (in brackets), about 18 hours, 30° C. or 37° C.; read-out: minimal inhibitory concentration (MIC)
[3] = test system: Klebsiella pneumoniae A 265; assay: protection test; format: in vivo; conditions: i.p.
Proteus mirabilis A 1200 = assay: protection test; format: in vivo; conditions: s.c.

## Cc1noc(CC(=O)N[C@@H]2C(=O)N3C(C(=O)O)=C(CSc4nnnn4C)CS[C@H]23)n1 [Compound G, sodium-7[(3-methyl-1,2,4-oxadiazol-5-yl)-acetamido] 3 [1-methyl-tetrazol-5-yl-mercaptomethyl] 3-cephem-4-carboxylate]
Dipl.pneum. L 54
  MIC: 0.5 µg/mL
Salm.dubl. P 43
  MIC: 1.5 µg/mL
Prot.mirab. A 1200 [1]
  MIC: 25 µg/mL
Prot.morg. 2241
  MIC: 100 µg/mL
Sarc. lutea ATCC 9341
  MIC: 0.5 µg/mL
Actinob.equ. T 3
  MIC: 0.5 µg/mL
Prot.mirab. A 1200 [2]
  MIC: 15 µg/mL
Haem.Suis A 2096
  MIC: 0.23 µg/mL
[3]; Klebsiella pneumoniae, A265, ip, protection test
  ED50: 86 mg/kg
[3]; reference Cefalotin
  Potency ratio: 1,09
Proteus mirabilis A 1200; Proteus mirabilis, A1200, sc, protection test, read-out: ED50
  ED50: 8.7 mg/kg
Proteus mirabilis A 1200; reference Cefalotin
  Potency ratio: 1,4
